Five compounds from US20260159519A1, “IMIDAZOPYRIDAZINE SUBSTITUTED BENZENE RING DERIVATIVE, PREPARATION METHOD, PHARMACEUTICAL COMPOSITION AND USE” (SHANGHAI SIMR BIOTECHNOLOGY CO., LTD., priority 2022, published 2026) can be followed below.

In this data set the test system is Chinese hamster ovary cells (CHO-WBL cells). The data set is described as follows: In vitro micronucleus assay. To be noted: 3-hour treatment with S9, 3-hour and 24-hour treatment without S9; overall judgment. The format is cell-based. The source says:
The experimental design is based on the experimental purpose and follows the following experimental design guidelines: • (1) OECD Guidelines for the Testing of Chemicals 487, In Vitro Mammalian Cell Micronucleus Test, revised in 2016; • (2) ICH S2 (R1): Guideline on Genotoxicity Testing and Data Interpretation for Pharmaceuticals Intended for Human Use, validated in November 2011.
Experimental system and selection rationale: Chinese hamster ovary cells (CHO-WBL cells) were used as an experimental system in this experiment. The cell line has a karyotype containing 21 chromosomes and a growth cycle of 12 to 13 hours. CHO-WBL cells were originally derived from Dr. S. Wolff at the University of California in San Francisco, USA, then cloned in the laboratory of Dr. A. Bloom at Columbia University in New York, and cloned again by Dr. S. Galloway at Litton Bionetics Laboratory in Maryland. The cell stock solution was stored in liquid nitrogen. The karyotype of each batch of cell stock solution was identified, and tests confirmed that it was free from mycoplasma contamination. The number of passages after cell cloning will not exceed 15. Chinese hamster ovary cells were chosen because the cell line is recommended for use in OECD Guidelines for the Testing of Chemicals 487 and has been proven to be sensitive to a variety of clastogens/aneugens (Marilyn J. et al., 2006).
Medium and cell growth conditions: Chinese hamster ovary cells were cultured in McCoy's 5A complete medium (McCoy's 5A complete medium supplemented with 10 vt % fetal bovine serum, 2 mM GlutaMAX™ medium, 100 units/mL penicillin, and 100 μg/mL streptomycin), and grown in a standard environment (a high-humidity incubator with a temperature of 37° C. and a CO2 concentration of 5%). The day before administration, CHO-WBL cells in exponential growth phase were inoculated onto an eight-well cell culture slide at a density of 8×10^3 cells/400 μL McCoy's 5A complete medium/well.
Metabolic activation system: The in vitro metabolic activation system (Maron and Ames, 1983) contains a rat liver microsomal homogenate induced by β-naphthoflavone and phenobarbital (referred to as S9) and an NADPH-generating system (i.e., NADP disodium and isocitric acid trisodium). S9 was purchased from CHI Scientific, Inc. and stored in a −75° C. refrigerator prior to use. Preparation method for S9 homogenate: Male Sprague Dawley rats were intraperitoneally injected with a single dose of p-naphthoflavone and phenobarbital, followed by material preparation.
Preparation of S9 metabolic activation system: NADP disodium salt and isocitric acid trisodium salt were first dissolved in serum-free medium to prepare a core solution, which was then filtered through a 0.22 µm filter to sterilize. Immediately before use, the S9 homogenate was thawed, and the components of the S9 metabolic activation system were mixed in the proportions shown in Table 2 below.
Dose exploration experiment: In the dose exploration experiment, 8 administration concentrations were established in each administration treatment series. For each concentration of the test substance, 1 well of cells was set up. According to the ICH S2 (R1) guidelines, when not limited by the solubility of the test substance in the solvent/medium or the cytotoxicity of the test substance, the recommended maximum concentration is 1 mM or 0.5 mg/mL, whichever is lower. However, when limited by solubility, the test maximum concentration is the minimum concentration at which a small amount of precipitate is visible in the medium under the microscope. To ensure that the upper limit of solubility in the medium can be reached, up to 4 concentrations with visible precipitate can be tested.

In the case of `CCN1C(=O)COc2cc(-c3cc(-c4cnnc5c4ncn5CC)ccc3F)c(OC)cc21` [Example 31, 4-Ethyl-7-(5-(7-ethyl-7H-imidazo[4,5-c]pyridazin-4-yl)-2-fluorophenyl)-6-methoxy-2H-benzo[b][1,4]oxazin-3(4H)-one], the “Results of in vitro micronucleus assay” value is given as “Negative”.

In the case of `COc1cc2c(cc1-c1cc(-c3cnnc4c3ncn4C(C)C)ccc1F)OCC(=O)N2C` [Example 36, 7-(2-Fluoro-5-(7-isopropyl-7H-imidazo[4,5-c]pyridazin-4-yl)phenyl)-6-methoxy-4-methyl-2H-benzo[b][1,4]oxazin-3(4H)-one], the “Results of in vitro micronucleus assay” value is reported as “Negative”.

Regarding `CCn1cnc2c(-c3ccc(F)c(-c4cc5c(cc4OC)N(C)C(=O)CO5)c3)cnnc21` [Example 42, 7-(5-(7-Ethyl-7H-imidazo[4,5-c]pyridazin-4-yl)-2-fluorophenyl)-6-methoxy-4-methyl-2H-benzo[b][1,4]oxazin-3(4H)-one], the “Results of in vitro micronucleus assay” value was “Negative”.

`CCn1cnc2c(-c3ccc(F)c(-c4cc5oc(=O)n(C)c5cc4OC)c3)cnnc21` [Example 87, 6-(5-(7-Ethyl-7H-imidazo[4,5-c]pyridazin-4-yl)-2-fluorophenyl)-5-methoxy-3-methylbenzo[d]oxazol-2(3H)-one]: the “Results of in vitro micronucleus assay” value is listed as “Negative”.

On to `CCn1cnc2c(-c3ccc(F)c(-c4cc5c(cc4OC)N(C)C(=O)C5)c3)cnnc21` [Example 161, 5-(5-(7-Ethyl-7H-imidazo[4,5-c]pyridazin-4-yl)-2-fluorophenyl)-6-methoxy-1-methyldihydro-2-one], for which the “Results of in vitro micronucleus assay” value is “Negative”.
